# Measurements: US5403940A, “Vitamin D compound, method of preparing this compound and intermediate thereof” (Duphar International Research B.V., priority 1991, dated 1995)
# Biological target: T1, calf thymus intracellular vitamin D receptor (VDR) (Bos taurus, UniProt Q28037)
# T1 construct: calf thymus intracellular vitamin D receptor (VDR); from tissue; host or cells: calf thymus
# T1 sequence (Q28037 1-426): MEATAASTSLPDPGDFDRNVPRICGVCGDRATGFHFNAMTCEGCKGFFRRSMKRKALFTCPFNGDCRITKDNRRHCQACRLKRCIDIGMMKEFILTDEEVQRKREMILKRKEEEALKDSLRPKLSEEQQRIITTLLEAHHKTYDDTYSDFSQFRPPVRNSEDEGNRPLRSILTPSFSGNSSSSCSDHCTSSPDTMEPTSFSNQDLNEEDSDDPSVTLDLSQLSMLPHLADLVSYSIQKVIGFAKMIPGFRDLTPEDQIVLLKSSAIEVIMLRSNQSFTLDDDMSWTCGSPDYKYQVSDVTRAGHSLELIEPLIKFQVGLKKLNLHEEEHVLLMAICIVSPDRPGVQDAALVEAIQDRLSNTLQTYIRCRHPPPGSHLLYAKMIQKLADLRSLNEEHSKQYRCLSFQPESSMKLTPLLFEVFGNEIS
# Assay: Affinity towards the calf thymus intracellular vitamin D receptor, replacement of 3H-calcitriol
# Assay type: binding
# Description: In this assay ^3 H-calcitriol (1α,25-dihydroxycholecalciferol), which is specifically bound to the VDR, is replaced by the tested compound.
structure (smiles),measurement,setting,value
C=C1/C(=C\C=C2/CCC[C@]3(CO)[C@@H]([C@H](C)CCCC(C)(C)O)CC[C@@H]23)C[C@@H](O)C[C@@H]1O [compound 46],IC50,"compound dissolved in ethanol, 10^-13 to 10^-7 M, 3H-calcitriol bound to VDR, read-out: IC50 value, i.e. 50% replacement of 3H-calcitriol",250 pM
same,affinity to the VDR,conclusion drawn from the IC50,high affinity to the VDR
